# Experimental data reported in US8354414B2, “Substituted bicyclic pyrimidines” (Cephalon, Inc, priority 2006, dated 2013).
# pIC50: −log10 of the molar value. Where two headings read alike, the source gives them in different places.
# Key:
# CDK5/GST-p25 = target: T1, CDK5/GST-p25 (Homo sapiens, UniProt Q00535); assay: Inhibition of CDK5/GST-p25 kinase activity (ELISA with time-resolved fluorescence readout); format: biochemical
# T1 construct: The final construct, encoding for full-length human CDK5; made in house; host or cells: Sf21 insect cells (baculovirus co-infection)
# Procedure, shortened: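 Sf21-coexpressed full-length human CDK5 with GST-p25 (p35 aa 108-307), glutathione-purified, at 2 ng/ml was reacted for 20 min at 37 °C on plate-coated GST-Rb(773-928). Buffer was 20 mM HEPES pH 7.2, 10 µM ATP, 10 mM MgCl2 and 2.5% DMSO. Phospho-Rb Ser-780 was detected by Eu-labelled antibody TRF, and IC50 curves were fitted.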
# His6-GSK-3β = target: T2, His6-GSK-3β (Homo sapiens, UniProt P49841); assay: Inhibition of His6-GSK-3β kinase activity (ELISA-based format, time-resolved fluorescence readout); format: biochemical; settings: read-out: GSK3β IC50
# T2 construct: made in house; host or cells: Sf21 insect cells (baculovirus)
# Procedure, shortened: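 N-terminal His6-tagged full-length human GSK-3β (aa 2-419) expressed in Sf21 cells, 200 ng/ml, phosphorylating plate-coated GST-Rb with 20 μM ATP in pH 7.2 HEPES buffer, 30 min at 37° C. Phospho-Rb (Ser-780) detected by antibody plus Eu-labelled secondary, time-resolved fluorescence; IC50 from curves.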
# T1 sequence (Q00535 whole entry): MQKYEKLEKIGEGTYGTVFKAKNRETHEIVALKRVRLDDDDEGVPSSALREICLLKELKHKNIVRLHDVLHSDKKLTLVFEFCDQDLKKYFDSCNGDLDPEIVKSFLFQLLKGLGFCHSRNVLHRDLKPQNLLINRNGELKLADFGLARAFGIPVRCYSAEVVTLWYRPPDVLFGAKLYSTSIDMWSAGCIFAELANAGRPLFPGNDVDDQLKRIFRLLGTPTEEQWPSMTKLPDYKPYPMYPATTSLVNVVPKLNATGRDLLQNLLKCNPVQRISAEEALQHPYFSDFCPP
# T1 sequence (Q15078 108-307 partner limits assumed): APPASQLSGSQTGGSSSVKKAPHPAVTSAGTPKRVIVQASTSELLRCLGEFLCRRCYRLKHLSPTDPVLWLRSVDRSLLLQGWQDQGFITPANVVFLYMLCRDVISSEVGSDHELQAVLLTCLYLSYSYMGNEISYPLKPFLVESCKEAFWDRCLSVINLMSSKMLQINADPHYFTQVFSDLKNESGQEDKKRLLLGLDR
# T2 sequence (P49841 2-419): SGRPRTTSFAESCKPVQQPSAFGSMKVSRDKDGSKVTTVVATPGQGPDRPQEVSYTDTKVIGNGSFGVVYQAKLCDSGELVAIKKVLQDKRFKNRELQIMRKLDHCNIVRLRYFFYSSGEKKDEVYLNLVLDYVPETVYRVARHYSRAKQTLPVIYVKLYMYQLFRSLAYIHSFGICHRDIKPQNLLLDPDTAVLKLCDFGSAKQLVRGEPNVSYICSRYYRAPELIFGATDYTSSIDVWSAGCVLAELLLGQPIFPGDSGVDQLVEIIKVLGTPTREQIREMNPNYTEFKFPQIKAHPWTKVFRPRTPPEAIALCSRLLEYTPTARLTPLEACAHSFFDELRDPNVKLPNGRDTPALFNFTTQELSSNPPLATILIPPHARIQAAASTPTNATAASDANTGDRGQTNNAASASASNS
SMILES,pIC50 (CDK5/GST-p25; numeric bounds),pIC50 (His6-GSK-3β; numeric bounds),pIC50 (His6-GSK-3β; class symbols),pIC50 (CDK5/GST-p25; class symbols)
"O=C1Nc2ccc(Cl)cc2C1c1nc(NCCN2CCOCC2)nc2c1CCC2 (stereo not shown) [Example 324, 5-Chloro-3-[2-(2-morpholin-4-yl-ethylamino)-6,7-dihydro-5H-cyclopentapyrimidin-4-yl]-1,3-dihydro-indol-2-one]",< 5.52,< 5.52,,
"O=C1Nc2ccc(Br)cc2C1c1nc(NCCN2CCOCC2)nc2c1CCC2 (stereo not shown) [Example 332, 5-Bromo-3-[2-(2-morpholin-4-yl-ethylamino)-6,7-dihydro-5H-cyclopentapyrimidin-4-yl]-1,3-dihydro-indol-2-one]",< 5.52,,5.52 to 6.52,
"N#Cc1ccc2c(c1)C(c1nc(NCCc3ccncc3)nc3nn(C4CCCC4)cc13)C(=O)N2 (stereo not shown) [Example 126, 3-(2-cyclopentyl-6-(2-pyridin-4-yl-ethylamino)-2H-pyrazolo [3,4-d]pyrimidin-4-yl)-2-oxo-2,3-dihydro-1H-indole-5-carbonitrile]",,,> 6.52,> 6.52
"N#Cc1ccc2c(c1)C(c1nc(Nc3cccnc3)nc3nn(C4CCCC4)cc13)C(=O)N2 (stereo not shown) [Example 169, 3-[2-Cyclopentyl-6-(pyridin-3-ylamino)-2H-pyrazolo [3,4-d]pyrimidin-4-yl]-2-oxo-2,3-dihydro-1H-indole-5-carbonitrile]",,,> 6.52,< 5.00
"O=C1Nc2ccc(Cl)cc2C1c1nc(NCc2ccc(C(F)(F)F)nc2)nc2c1CCC2 (stereo not shown) [Example 329, 5-Chloro-3-{2-[(6-trifluoromethyl-pyridin-3-ylmethyl)-amino]-6,7-dihydro-5H-cyclopentapyrimidin-4-yl}-1,3-dihydro-indol-2-one]",,,< 5.00,< 5.00
"C[C@@H](O)CNc1nc(C2C(=O)Nc3ccc(Br)cc32)c2cn(C)nc2n1 (stereo partly drawn) [Example 358, 5-Bromo-3-[6-(2-(R)-hydroxy-propylamino)-2-methyl-2H-pyrazolo [3,4-d]pyrimidin-4-yl]-1,3-dihydroindol-2-one]",,,> 6.52,> 6.52
"N#Cc1ccc2c(c1)C(c1nc(NCCc3cccnc3)nc3nn(C4CCCC4)cc13)C(=O)N2 (stereo not shown) [Example 114, 3-(2-cyclopentyl-6-(2-pyridin-3-yl-ethylamino)-2H-pyrazolo[3,4-d]pyrimidin-4-yl)-2-oxo-2,3-dihydro-1H-indole-5-carbonitrile]",,,> 6.52,> 6.52
"COCCCNc1nc(C2C(=O)Nc3ccc(C#N)cc32)c2cn(C3CCCC3)nc2n1 (stereo not shown) [Example 175, 3-[2-Cyclopentyl-6-(3-methoxy-propylamino)-2H-pyrazolo [3,4-d]pyrimidin-4-yl]-2-oxo-2,3-dihydro-1H-indole-5-carbonitrile]",,,> 6.52,> 6.52
"N#Cc1ccc2c(c1)C(c1nc(NCc3ccncc3)nc3c1CCC3)C(=O)N2 (stereo not shown) [Example 347, 2-Oxo-3-{2-[(pyridin-4-ylmethyl)-amino]-6,7-dihydro-5H-cyclopentapyrimidin-4-yl}-2,3-dihydro-1H-indole-5-carbonitrile]",,,5.52 to 6.52,5.52 to 6.52
"N#Cc1ccc2c(c1)C(c1nc(NN)nc3nn(C4CCCC4)cc13)C(=O)N2 (stereo not shown) [Example 124, 3-(2-cyclopentyl-6-hydrazino-2H-pyrazolo [3,4-d]pyrimidin-4-yl)-2-oxo-2,3-dihydro-1H-indole-5-carbonitrile]",,,> 6.52,5.52 to 6.52
"O=C1Nc2ccc(Br)cc2C1c1nc(Cl)nc2nn(C3CCCC3)cc12 (stereo not shown) [Example 182, 5-Bromo-3-(6-chloro-2-cyclopentyl-2-H-pyrazolo[3,4-d]pyrimidin-4-yl)-1,3-dihydro-indol-2-one]",,< 5.52,,< 5.00
"N#Cc1ccc2c(c1)C(c1nc(Nc3cccnc3)nc3c1CCC3)C(=O)N2 (stereo not shown) [Example 350, 2-Oxo-3-[2-(pyridin-3-ylamino)-6,7-dihydro-5H-cyclopentapyrimidin-4-yl]-2,3-dihydro-1H-indole-5-carbonitrile]",< 5.52,,5.52 to 6.52,
"N#Cc1ccc2c(c1)C(c1nc(NCCc3ccccn3)nc3c1CCC3)C(=O)N2 (stereo not shown) [Example 346, 2-Oxo-3-[2-(2-pyridin-2-yl-ethylamino)-6,7-dihydro-5H-cyclopentapyrimidin-4-yl]-2,3-dihydro-1H-indole-5-carbonitrile]",,,5.52 to 6.52,5.52 to 6.52
"N#Cc1ccc2c(c1)C(c1nc(NCc3ccccn3)nc3nn(C4CCCC4)cc13)C(=O)N2 (stereo not shown) [Example 123, 3-{2-cyclopentyl-6-[(pyridin-2-yl-methyl)amino]-2H-pyrazolo[3,4-d]pyrimidin-4-yl}-2-oxo-2,3-dihydro-1H-indole-5-carbonitrile]",,,> 6.52,> 6.52
"N#Cc1ccc2c(c1)C(c1nc(NCCc3ccccc3)nc3nn(C4CCCC4)cc13)C(=O)N2 (stereo not shown) [Example 134, 3-(2-cyclopentyl-6-2-phenethylamino-2H-pyrazolo [3,4-d]pyrimidin-4-yl)-2-oxo-2,3-dihydro-1H-indole-5-carbonitrile]",< 5.52,,> 6.52,
"CNCCCNc1nc(C2C(=O)Nc3ccc(Br)cc32)c2cn(CCOC)nc2n1 (stereo not shown) [Example 226, 5-Bromo-3-[2-(2-methoxy-ethyl)-6-(3-methylamino-propylamino)-2H-pyrazolo[3,4-d]pyrimdin-4-yl]-1,3-dihydro-indol-2-one]",,,> 6.52,> 6.52
"N#Cc1ccc2c(c1)C(c1nc(O)nc3nn(C4CCCC4)cc13)C(=O)N2 (stereo not shown) [Example 120, 3-(2-cyclopentyl-6-hydroxy-2H-pyrazolo [3,4-d]pyrimidin-4-yl)-2-oxo-2,3-dihydro-1H-indole-5-carbonitrile]",,,> 6.52,< 5.00
"CNCCCn1cc2c(C3C(=O)Nc4ccc(Br)cc43)ncnc2n1 (stereo not shown) [Example 90, 3-[2-(3-methylamino-propyl)-2H-pyrazolo[3,4-d]pyrimidin-4-yl]-5-bromo-1,3-dihydro-indol-2-one]",,,5.52 to 6.52,> 6.52
"O=C1Nc2ccc(Br)cc2C1c1nc(NCc2ccccn2)nc2nn(C3CCCC3)cc12 (stereo not shown) [Example 179, 5-Bromo-3-{2-cyclopentyl-6-[(pyridin-2-ylmethyl)-amino]-2H-pyrazolo [3,4-d]pyrimidin-4-yl}-1,3-dihydro-1H-indol-2-one]",,,> 6.52,5.52 to 6.52
"N#Cc1ccc2c(c1)C(c1nc(N3CCN(CCCc4ccccc4)CC3)nc3nn(C4CCCC4)cc13)C(=O)N2 (stereo not shown) [Example 128, 3-{2-cyclopentyl-6-[4-(3-phenyl-propyl)-piperazin-1-yl]-2H-pyrazolo[3,4-d]pyrimidin-4-yl}-2-oxo-2,3-dihydro-1H-indole-5-carbonitrile]",,,> 6.52,< 5.00
"N#Cc1ccc2c(c1)C(c1nc(NCc3ccc(C(F)(F)F)nc3)nc3nn(C4CCCC4)cc13)C(=O)N2 (stereo not shown) [Example 173, 3-{2-Cyclopentyl-6-[(6-trifluoromethyl-pyridin-3-ylmethyl)-amino]-2H-pyrazolo [3,4-d]pyrimidin-4-yl}-2-oxo-2,3-dihydro-1H-indole-5-carbonitrile]",,,> 6.52,> 6.52
"N#Cc1ccc2c(c1)C(c1nc(N3CCN(CCc4ccccn4)CC3)nc3nn(C4CCCC4)cc13)C(=O)N2 (stereo not shown) [Example 129, 3-{2-cyclopentyl-6-[4-(2-pyridin-2-yl-ethyl)-piperazin-1-yl]-2H-pyrazolo [3,4-d]pyrimidin-4-yl}-2-oxo-2,3-dihydro-1H-indole-5-carbonitrile]",,,> 6.52,< 5.00
"Cn1cc2c(C3C(=O)Nc4ccc(Br)cc43)nc(NCCc3cccnc3)nc2n1 (stereo not shown) [Example 305, 5-Bromo-3-[2-methyl-6-(2-pyridin-3-yl-ethylamino)-2H-pyrazolo [3,4-d]pyrimidin-4-yl]-1,3-dihydro-indol-2-one]",,,> 6.52,> 6.52
"CN(C)CCCNc1nc2c(c(C3C(=O)Nc4ccc(Br)cc43)n1)CCC2 (stereo not shown) [Example 335, 5-Bromo-3-[2-(3-dimethylamino-propylamino)-6,7-dihydro-5H-cyclopentapyrimidin-4-yl]-1,3-dihydro-indol-2-one]",< 5.52,< 5.52,,
"COCCn1cc2c(C3C(=O)Nc4ccc(Br)cc43)nc(NCCC3CCCNC3)nc2n1 (stereo not shown) [Example 228, 5-Bromo-3-[2-(2-methoxy-ethyl)-6-(2-piperidin-3-yl-ethylamino)-2H-pyrazolo[3,4-d]pyrimidin-4-yl]-1,3-dihydro-indol-2-one]",,,> 6.52,> 6.52
"CN1CCN(c2nc3c(c(C4C(=O)Nc5ccc(C#N)cc54)n2)CCC3)CC1 (stereo not shown) [Example 353, 3-[2-(4-Methyl-piperazin-1-yl)-6,7-dihydro-5H-cyclopentapyrimidin-4-yl]-2-oxo-2,3-dihydro-1H-indole-5-carbonitrile]",,,5.52 to 6.52,< 5.00
"N#Cc1ccc2c(c1)C(c1nc(NCCN3CCCC3)nc3nn(C4CCCC4)cc13)C(=O)N2 (stereo not shown) [Example 136, 3-[2-cyclopentyl-6-(2-pyrrolidin-1-yl-ethylamino)-2H-pyrazolo[3,4-d]pyrimidin-4-yl]-2-oxo-2,3-dihydro-1H-indole-5-carbonitrile]",< 5.52,,> 6.52,
"CN(C)CCNc1nc(C2C(=O)Nc3ccc(Br)cc32)c2cn(C)nc2n1 (stereo not shown) [Example 359, 5-Bromo-3-[6-(2-dimethylamino-ethylamino)-2-methyl-2H-pyrazolo[3,4-d]pyrimidin-4-yl]-1,3-dihydro-indol-2-one]",,,5.52 to 6.52,5.52 to 6.52
"O=C1Nc2ccc(Cl)cc2C1c1nc(NCc2ccccn2)nc2c1CCC2 (stereo not shown) [Example 330, 5-Chloro-3-{2-[(pyridin-2-ylmethyl)-amino]-6,7-dihydro-5H-cyclopentapyrimidin-4-yl}-1,3-dihydro-indol-2-one]",,,< 5.00,< 5.00
